Test results reported in PMC9399028 (European Journal of Nuclear Medicine and Molecular Imaging, 2022).
“Also recorded” adds a separate entry of the source. Read-outs that look alike come from different tables or passages of the source.

Columns and labels:
[1] = molecular target: T1, Human recombinant MAO-B (Homo sapiens, UniProt P27338); assay: Saturation binding of radioligand to MAO-B microsomes
T1 construct: purchased Sigma M7441
T1 sequence (P27338 1-520): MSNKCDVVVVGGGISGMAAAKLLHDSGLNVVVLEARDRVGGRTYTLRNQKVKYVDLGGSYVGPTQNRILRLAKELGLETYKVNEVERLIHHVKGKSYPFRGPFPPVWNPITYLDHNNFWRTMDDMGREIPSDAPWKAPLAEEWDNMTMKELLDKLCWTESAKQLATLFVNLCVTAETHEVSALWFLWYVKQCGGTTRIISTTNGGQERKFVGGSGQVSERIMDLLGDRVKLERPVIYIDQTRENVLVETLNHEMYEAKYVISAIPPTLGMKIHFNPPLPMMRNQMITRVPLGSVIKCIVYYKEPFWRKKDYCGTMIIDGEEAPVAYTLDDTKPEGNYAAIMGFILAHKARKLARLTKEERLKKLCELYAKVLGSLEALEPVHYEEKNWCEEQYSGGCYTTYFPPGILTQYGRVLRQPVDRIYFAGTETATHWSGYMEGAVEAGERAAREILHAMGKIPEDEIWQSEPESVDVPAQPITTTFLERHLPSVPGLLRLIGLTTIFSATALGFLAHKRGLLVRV
Experimental: (§1) The dissociation constant (Kd) was determined by saturation binding, in which the total and non-specific binding of the radioligand was measured at various concentrations. Human recombinant MAO-A, MAO-B, and control microsomes were acquired from Sigma (M7316, M7441, and M7566, respectively). All microsome preparations were at a concentration of 5 mg protein/mL. The reaction mixture (250 μL) contained protein target and ^18F-radioligand, serially diluted in PBS, pH 7.4; assays were performed in PBS (0.01% bovine serum albumin [BSA]) in 96-well polypropylene microplates. […] . Filters were assayed for radioactivity in a Wizard 2480 automatic gamma-counter (Perkin Elmer).

[2] = molecular target: T2, MAO-A (Rattus norvegicus, UniProt P21396); assay: In vivo PET imaging in rats with pargyline pre-treatment; conditions: for peak brain activity: at 2 min
T2 construct: Male wild-type Sprague-Dawley rats; from tissue; host or cells: brain of living wild-type Sprague-Dawley rats
T2 sequence (P21396 1-526): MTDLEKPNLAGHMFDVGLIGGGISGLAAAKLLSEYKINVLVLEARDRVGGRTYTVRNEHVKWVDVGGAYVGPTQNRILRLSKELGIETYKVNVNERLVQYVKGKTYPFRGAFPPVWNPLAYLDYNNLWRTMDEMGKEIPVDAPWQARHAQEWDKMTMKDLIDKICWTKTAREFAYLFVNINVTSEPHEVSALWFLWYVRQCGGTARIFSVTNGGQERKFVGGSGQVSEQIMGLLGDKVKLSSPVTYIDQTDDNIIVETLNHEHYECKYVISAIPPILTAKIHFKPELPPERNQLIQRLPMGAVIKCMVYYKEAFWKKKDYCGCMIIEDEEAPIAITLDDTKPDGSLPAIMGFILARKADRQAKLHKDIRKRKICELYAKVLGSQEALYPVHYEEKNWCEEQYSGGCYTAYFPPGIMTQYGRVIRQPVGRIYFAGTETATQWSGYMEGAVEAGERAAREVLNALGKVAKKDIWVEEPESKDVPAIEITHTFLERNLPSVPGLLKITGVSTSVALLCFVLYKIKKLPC
Experimental: All procedures in this study followed the guidelines of the Institutional Animal Care and Use Committee of the University of the Sciences, Philadelphia, PA. A Siemens Inveon Multimodality Scanner was used for micro-PET/computed tomography (CT) imaging. Male wild-type Sprague-Dawley rats (128 ± 58 g) were anesthetized with 3% isoflurane with oxygen. Rats were administered [^18F]fluoroethyl-harmol or [^18F]flortaucipir via tail vein injection (7.4-14.8MBq [200–400 μCi] in a total volume of 200 μL). For blocking studies, rats were pre-treated with pargyline (Sigma-Aldrich, 50 mg/kg i.p.) 30 min prior to scans; control rats were pre-treated with 0.9% saline injection (Hospira, i.p.). A short high-resolution CT scan was first conducted for anatomical registration, followed by a 120-min dynamic PET scan. PET images were generated for each minute of the acquisition time. Uptake of the tracers was determined by visually drawing regions of interest based on the fused PET/CT images, and corresponding activity values were determined using Inveon Research Workplace software. All values are represented as % injected dose per gram (ID/g). A total of 6 rats were studied (3 control, 3 pre-treated) for [^18F]fluoroethyl-harmol and 8 rats for [^18F]flortaucipir (4 control, 4 pre-treated).

[3] = tested on: [^18F]flortaucipir binding to normal human brain (temporal cortex sections); assay: [^18F]flortaucipir autoradiography competition binding assay with MAO-A and MAO-B inhibitors; conditions: for IC50: normal (tau NFT negative) human temporal cortex sections, 1.4 nM [^18F]flortaucipir, mild PBS wash, read-out: IC50, inhibition of [^18F]flortaucipir binding (autoradiography)
Experimental: After 60-min incubation at room temperature, PBS washes (4 × 2 min) were used to remove any unbound ligand. […] Signal intensity (counts/pixel) on each section was measured using Multi Gauge V3.0 Imaging software. Total binding was evaluated by nonlinear regression using GraphPad Prism v8 to determine IC50 values.

[4] = tested on: frozen human brain slices from AD donors (PHF tau-rich) and non-AD control donors; assay: [^18F]flortaucipir autoradiography, stringent vs mild wash conditions; format: binding
Experimental: Autoradiography was performed on frozen human brain slices from AD donors (N = 3, PHF tau-rich as determined by AT8 immunohistochemistry) and age-matched non-AD control donors (N = 6, devoid of tau NFTs and beta-amyloid neuritic plaques as determined by immunohistochemistry). Brains slices were obtained from the National Disease Research Interchange (Philadelphia, PA).

[5] = molecular target: T3, MAO-B microsomes (Homo sapiens, UniProt P27338); assay: LC-MS direct saturation binding to MAO-B microsomes
T3 sequence (P27338 1-520): T1 sequence (P27338 1-520)

[6] = molecular target: T4, Human recombinant MAO-A (Homo sapiens, UniProt P21397); assay: Saturation binding of radioligand to MAO-A microsomes
T4 construct: purchased Sigma M7316
T4 sequence (P21397 1-527): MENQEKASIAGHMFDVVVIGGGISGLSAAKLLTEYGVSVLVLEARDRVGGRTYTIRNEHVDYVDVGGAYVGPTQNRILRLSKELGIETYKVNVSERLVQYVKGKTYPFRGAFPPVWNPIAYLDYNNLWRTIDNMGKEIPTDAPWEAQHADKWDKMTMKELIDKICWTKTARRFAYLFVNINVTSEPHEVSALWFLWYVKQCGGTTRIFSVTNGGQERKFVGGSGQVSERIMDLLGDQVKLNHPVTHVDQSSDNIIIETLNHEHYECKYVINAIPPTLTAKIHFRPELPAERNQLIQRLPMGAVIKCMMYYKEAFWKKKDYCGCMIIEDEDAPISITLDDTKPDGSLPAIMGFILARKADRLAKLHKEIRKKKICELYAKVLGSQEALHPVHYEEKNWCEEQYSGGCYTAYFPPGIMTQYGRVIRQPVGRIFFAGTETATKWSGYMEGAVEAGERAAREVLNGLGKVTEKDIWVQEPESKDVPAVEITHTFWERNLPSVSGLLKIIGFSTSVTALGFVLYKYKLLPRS
Experimental: as §1

[7] = molecular target: isolated human PHF (Homo sapiens, UniProt P10636); assay: Saturation binding of radioligand to isolated PHF
Sequence of isolated human PHF (P10636 623-695 limits assumed): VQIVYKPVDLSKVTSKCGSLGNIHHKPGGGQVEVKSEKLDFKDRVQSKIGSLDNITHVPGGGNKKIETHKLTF
Experimental: Purified, soluble PHF was isolated from AD brain tissue using a protocol modified from the procedure described by Jicha et al.. Briefly, homogenized AD cortex underwent high pressure batch–gas expansion using a Parr Cell disruption bomb and centrifuged at […]. […] Bound PHF was eluted with two column volumes of 3M potassium thiocyanate. Isolated PHF was analyzed in a tau MC-1 ELISA and a tau AT8 ELISA, which recognizes tau phosphorylated at both Ser 202 and Thr 205 [3].
as §1

[8] = molecular target: T3, MAO-B microsomes; assay: Competition binding, displacement of safinamide from MAO-B microsomes (LC-MS); parameters: purchased Sigma M7441
Experimental: IC50 values for each compound were determined by competition binding. […] IC50 values were determined by nonlinear regression analysis using GraphPad Prism.

[9] = NSB defined as binding to control microsomes
[10] = NSB defined with 10 μM deprenyl

SMILES: CNc1ccc(-c2ccc3cc(OC[C@H](O)CF)ccc3n2)cn1 [[^18F]THK5351]
- Kd [1, 9]: 37 ± 1.8 nM
- Kd ([1]; NSB defined with 1 μM THK5351): 40 ± 0.7 nM
- Kd [1, 10]: 39 ± 1.1 nM

SMILES: CNc1ccc(-c2ccc3cc(OC[C@H](O)C[18F])ccc3n2)cn1 [[^18F]THK5351]
- Bmax [1, 9]: 49 ± 6.3 pmol ligand/mg total protein
- Bmax ([1]; NSB defined with 1 μM THK5351): 54 ± 3.4 pmol ligand/mg total protein
- Bmax [1, 10]: 51 ± 5.5 pmol ligand/mg total protein

SMILES: [18F]c1ccc(-c2ccc3c(c2)[nH]c2ccncc23)cn1 [[^18F]flortaucipir]
- effect of pargyline pre-treatment on brain uptake and clearance ([2]; rats, control vs pargyline 50 mg/kg): nearly identical brain uptake with rapid clearance in both the control and pargyline groups
- fraction of [^18F]flortaucipir bound to normal brain sections that was displaced ([3]; mild wash conditions, remainder non-specific and non-saturable): approximately 50%
- specific binding to MAO-B (radioligand saturation) ([1]; MAO-B microsomes vs control microsomes or 10 μM deprenyl): no specific binding; also recorded: no significant binding
- saturability of autoradiography signal on AD tissue [4]: saturable
- saturability of off-target binding, mild wash ([4]; mild wash, AD and control tissue, 1 μM flortaucipir): only partially saturable
- [^18F]flortaucipir binding on tissue, mild wash ([4]; mild washing (PBS), frontal cortex and striatum): observed on both AD and control tissues
- [^18F]flortaucipir binding on tissue, stringent wash ([4]; stringent washing (30% and 70% EtOH), frontal cortex and striatum): observed only on tau NFT-rich AD tissue, not on control tissue

SMILES: C[C@H](NCc1ccc(OCc2cccc(F)c2)cc1)C(N)=O [safinamide]
- Bmax ([5]; LC-MS, NSB = control microsome): 446 pmol ligand/mg total protein
- IC50 [3]: ≥ 10000 nM

SMILES: Fc1ccc(-c2ccc3c(c2)[nH]c2ccncc23)cn1 [[^18F]flortaucipir]
- Kd [6]: 2 nM
- Kd [7]: 0.57 nM

SMILES: Cc1nccc2c1[nH]c1cc(OCCF)ccc12 [fluoroethyl-harmol]
- IC50 ([8]; read-out: IC50, displacement of safinamide, 30 nM safinamide, 10 μg MAO-B microsomes): > 10000 nM
- IC50 [3]: 780 nM

SMILES: Cc1nccc2c1[nH]c1cc(OCC[18F])ccc12 [[^18F]fluoroethyl-harmol]
- brain activity at 110 min ([2]; control rats, 110 min): 2.1 %ID/g
- peak brain activity ([2]; control rats, i.v.): 2.3 %ID/g
- peak brain activity ([2]; pargyline 50 mg/kg i.p. pre-treated rats): 2.4 %ID/g
- brain activity after washout ([2]; pargyline 50 mg/kg i.p. pre-treated rats, by 20 min): 1.0 %ID/g

SMILES: Fc1ccc(-c2ccc3c(c2)[nH]c2ccncc23)cn1 [flortaucipir]
- IC50 [8]: 1300 nM
- specific binding to MAO-B (LC-MS saturation) ([5]; higher flortaucipir concentrations): no specific binding was observed
- IC50 [3]: 270 nM
